Data as given in PubChem BioAssay AID1645863 (Buhrlage Lab, Dana-Farber Cancer Institute and Novartis …, 2021).
Calls of active or inactive are those of the source. The rule behind the calls is not given here.

Molecular target: Ubiquitin carboxyl-terminal hydrolase 10 (Homo sapiens) (UniProt Q14694)
Test: primary hit verification, biochemical, ubiquitin-specific protease 10 deubiquitylase inhibitors, concentration-effect titration (AID 1645863);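 note: potency values describe inhibition of USP10 cleavage of a fluorogenic ubiquitin substrate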
Conditions: USP10 deubiquitinase enzymatic assay

Sequence of Ubiquitin carboxyl-terminal hydrolase 10 (Homo sapiens) (Q14694 whole entry, looked up): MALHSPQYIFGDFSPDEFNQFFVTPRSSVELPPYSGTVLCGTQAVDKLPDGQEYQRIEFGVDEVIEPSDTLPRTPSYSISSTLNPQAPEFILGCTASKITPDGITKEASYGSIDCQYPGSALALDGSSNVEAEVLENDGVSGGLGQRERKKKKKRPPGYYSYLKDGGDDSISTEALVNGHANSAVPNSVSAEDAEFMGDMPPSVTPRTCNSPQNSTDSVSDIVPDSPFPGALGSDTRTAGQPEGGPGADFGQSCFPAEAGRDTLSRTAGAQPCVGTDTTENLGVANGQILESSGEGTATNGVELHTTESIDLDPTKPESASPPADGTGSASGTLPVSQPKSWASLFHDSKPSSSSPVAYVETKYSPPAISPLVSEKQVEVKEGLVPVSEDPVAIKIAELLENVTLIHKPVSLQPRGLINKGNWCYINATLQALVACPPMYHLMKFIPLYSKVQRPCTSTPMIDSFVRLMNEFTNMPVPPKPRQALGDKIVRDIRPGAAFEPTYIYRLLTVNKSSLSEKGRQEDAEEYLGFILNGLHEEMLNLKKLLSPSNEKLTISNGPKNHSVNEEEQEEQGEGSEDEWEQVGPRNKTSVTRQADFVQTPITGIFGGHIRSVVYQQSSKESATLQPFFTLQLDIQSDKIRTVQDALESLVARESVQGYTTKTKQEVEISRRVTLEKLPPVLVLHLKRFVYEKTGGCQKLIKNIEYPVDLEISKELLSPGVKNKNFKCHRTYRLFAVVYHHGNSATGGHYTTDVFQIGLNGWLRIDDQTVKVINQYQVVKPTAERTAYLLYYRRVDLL

SMILES	IC50
CC(C)Cc1nc2sc3c(SCC(=O)N4CCC(C)CC4)ncnc3c2c2c1COC(C)(C)C2	> 40 µM (inactive)
O=C(CNC(=O)c1ccc2nc(-n3cccc3)sc2c1)NCc1ccccc1	> 40 µM (inactive)
Nc1c(-c2ccc(Cl)cc2)cnc2cc(-c3ccc(Cl)c(Cl)c3)nn12	> 40 µM (inactive)
Cc1cc(C)cc(NC(=O)Nc2ccccc2OCc2cc(=O)n3c(ncn3C(C)C)n2)c1	14.3 µM
O=C(Nc1ccc(-c2cn3ccsc3n2)cc1)c1ccc(Cl)c([N+](=O)[O-])c1	19.7 µM
CCCCCCCC1OC(=O)Cc2cc(O)c(O)c(O)c21 (configuration not stated)	3.3 µM
c1ccc(CNc2ccc(-c3ccccc3)nn2)cc1	> 40 µM (inactive)
CCOc1ccc2[nH]c(=O)c(-c3nc4ccc(C)cn4c3NCc3ccccc3)cc2c1	> 40 µM (inactive)
CCCCOc1ccc(C(=O)n2ccn(S(=O)(=O)c3ccc(C)cc3)c2=O)cc1	> 40 µM (inactive)
CSc1ccc(CNC(=O)Cn2c(=O)[nH]c3c(-c4ccccc4)c[nH]c3c2=O)cc1	> 40 µM (inactive)
COc1ccc(OC)c(NC(=O)c2sc(-c3ccccc3)nc2C)c1	37 µM
Fc1cccc(Nc2ncnc3c2oc2ccccc23)c1	> 40 µM (inactive)
O=C(c1cccnc1)N1CCN(c2cc(-c3ccccc3)[nH]n2)CC1	> 40 µM (inactive)
Cn1c(=O)n([C@@H](Cc2ccccc2)C(=O)N[C@@H](C(=O)O)c2ccc(O)cc2)c(=O)c2ccccc21	> 40 µM (inactive)
Cc1nc2c(-c3ccc(Cl)cc3)c[nH]n2c(=O)c1Cc1ccccc1	> 12.6 µM (inactive)
O=C(Nc1ccc(Br)cc1F)c1ccc(S(=O)(=O)N2CCCC2)cc1	> 40 µM (inactive)
Cc1cc(C)c(NC(=O)Cc2sc(Nc3ccc(C)c(C)c3)nc2O)c(C)c1	> 40 µM (inactive)
COCCCNC(=O)c1ccc(Cn2c(=O)c3ccccc3n(CC(=O)Nc3ccc(OC)cc3)c2=O)cc1	> 40 µM (inactive)
O=C(Cn1c(=O)[nH]c2c(-c3ccccc3)c[nH]c2c1=O)NCc1ccccc1Cl	> 40 µM (inactive)
Cc1ccc(NC(=O)COc2ccccc2/C=C2/NC(=O)N(Cc3ccc(F)cc3)C2=O)cc1	> 40 µM (inactive)
CC1=C(Cn2c3cccc(=O)c-3nc3ccccc32)CCC(C)(C)C1	5.79 µM
CC(C)[C@H]1CC[C@@]2(CO2)[C@H]2C(=O)OCC(C(=O)O)=C[C@H]12	21.7 µM
CCN(Cc1ccccc1)C(=O)C1CCN(Cc2ccc(OC)c(OC)c2OC)CC1	> 40 µM (inactive)

SMILES	IC50
CCc1nnc(-c2ccc3ccn(CC(=O)N4CCN(c5ccccn5)CC4)c3c2)o1	> 40 µM (inactive)
O=C(CC1C(=O)Nc2nc3ccccc3n21)Nc1cccc2ccccc12 (configuration not stated)	16.5 µM
Fc1ccccc1-c1nc2c3cnn(-c4ccccc4)c3ncn2n1	> 40 µM (inactive)
Cc1noc(-c2ccnc(-n3cnc(C(=O)NCC4CC4)c3)c2)n1	> 40 µM (inactive)
Cc1ccc(C(=O)O)cc1NC(=O)C(Sc1cccc(NC(=O)c2ccccc2C)c1)c1ccccc1 (configuration not stated)	> 40 µM (inactive)
Cc1ccc(NC(=O)Nc2ccc(C)n(CC(=O)Nc3cccc(C)c3)c2=O)cc1	> 40 µM (inactive)
CCCCOc1ccc(-c2cc3n(c(=N)c2C#N)CCc2cc4c(cc2-3)OCCCO4)cc1OC	> 40 µM (inactive)
Cc1noc(-c2cc(=O)n(CC(=O)Nc3ccccc3Cl)c3ccccc23)n1	14.4 µM
CC(C)=CCc1c2c(c3occ(-c4ccc(O)c(O)c4)c(=O)c3c1O)C=CC(C)(C)O2	6.37 µM
CC(=O)Nc1ccc(C(=O)/C=C2\NCCc3cc4c(cc32)OCCCO4)cc1	> 40 µM (inactive)
Cc1cc(C)c(NC(=O)Cn2c(SCc3cccc(F)c3)nc3cccnc32)c(C)c1	> 40 µM (inactive)
O=S(=O)(Nc1cccc(O)c1)c1ccc2oc3ccc(S(=O)(=O)Nc4cccc(O)c4)cc3c2c1	14.4 µM
O=C(CCCn1c(=O)c2ccccc2n(CC(=O)NCc2ccccc2Cl)c1=O)NCc1ccc2c(c1)OCO2	8.88 µM
Cc1ccc(-c2nc3c(c(SCC(=O)c4ccccc4)n2)COC(C)(C)C3)cc1	> 40 µM (inactive)
CCCCCCCCCCCCCCCc1cc(O)cc(O)c1C(=O)O	19.3 µM
Cc1cccc(NC(=O)CNC(=O)c2ccc(-c3noc(C4CCCC4)n3)cc2)c1C	> 40 µM (inactive)
Cc1c(C(=O)NCc2cccc(Br)c2)oc2c1-c1[nH]ncc1CC2	> 40 µM (inactive)
Cc1ccc(N2CC(C(=O)Nc3cccc(-c4noc(C)n4)c3)CC2=O)cc1 (configuration not stated)	> 40 µM (inactive)
Cc1ccc(CNC(=O)c2ccc3nn(CC(=O)Nc4ccccc4F)c(=O)n3c2)cc1	> 40 µM (inactive)
Cc1cccn2c(=O)c3cc(C#N)c(=O)n(-c4cccc(C(F)(F)F)c4)c3nc12	> 40 µM (inactive)
O=c1c2ccccc2nc(/C=C/c2ccco2)n1Cc1ccccc1	> 40 µM (inactive)
Cc1ccc(-n2nc(C(=O)Nc3ccc(C)cn3)c3ncn(C)c(=O)c32)cc1	> 40 µM (inactive)
COC(=O)c1ccc(N2CCN(C(C)=O)CC2)c(NC(=O)COc2ccc([N+](=O)[O-])cc2)c1	25.1 µM

SMILES	IC50
O=C1CC(C(=O)Nc2ccc3c(c2)OCO3)n2nc(SCc3ccccc3)nc2N1 (configuration not stated)	> 40 µM (inactive)
Cc1nc2c(c(C)c1CCC(=O)Nc1ccccc1F)c(=O)n(C)c(=O)n2C	> 40 µM (inactive)
O=C(CSc1nc2cc(C(F)(F)F)ccc2s1)NCC(=O)c1ccccc1	18.1 µM
Cc1ccc(NC(=O)Cn2cc(C(=O)c3ccccc3)c(=O)c3cc(C)ccc32)cc1	23.9 µM
O=C(c1ccccn1)N1CCC2(CC1)CC1(CO2)Nc2ccccc2-n2cccc21 (configuration not stated)	> 40 µM (inactive)
COc1ccc(NC(=O)Cn2c(=O)n(CCCCC(=O)NCc3ccco3)c(=O)c3ccccc32)cc1Cl	> 40 µM (inactive)
CSc1cccc(NC(=O)C2C3C=CC4(O3)C2C(=O)N(CCc2ccccc2)C4C(=O)NC2CCCCC2)c1 (configuration not stated)	> 40 µM (inactive)
Cc1cccc(-c2nnn3c2nc(NCC2CCCO2)c2ccccc23)c1 (configuration not stated)	> 40 µM (inactive)
CCOc1ccc2c(c1)c(=O)c(C(=O)c1ccccc1)cn2CC(=O)Nc1ccc2c(c1)OCCO2	22.5 µM
O=C(/C=C/c1c(F)cccc1Cl)N1CCc2ccccc2C1	> 40 µM (inactive)
O=C(Nc1ccccc1C(=O)NC1CCSC1)c1ccc([N+](=O)[O-])cc1 (configuration not stated)	> 40 µM (inactive)
COc1ccc2cc(C(=O)N3CCC(C(C)C(=O)NCc4cccc(F)c4)CC3)[nH]c2c1 (configuration not stated)	38 µM
Cc1nc(-c2noc(-c3cccc(F)c3)n2)cn1CC(=O)Nc1ccccc1	15.8 µM
COc1ccc(-c2nc(-c3cn(-c4ccccc4)nn3)no2)c(OC)c1	> 40 µM (inactive)
O=C(COc1nc2ccccc2nc1N1CCOCC1)NC(c1ccccc1)c1ccccc1	> 40 µM (inactive)
Cc1c(C#N)c2ccccc2n1CC(=O)NCc1ccc2c(c1)OCO2	> 40 µM (inactive)
O=c1c2[nH]c3ccccc3c2ncn1CCC1=CCCCC1	> 40 µM (inactive)
CCC(=O)Nc1nc2cc(NC(=O)Nc3ccccc3Cl)ccc2s1	> 40 µM (inactive)
Cc1ccc(S(=O)(=O)NCc2ccc(C(=O)NCCc3ccc(S(N)(=O)=O)cc3)cc2)cc1	> 40 µM (inactive)
CCn1c(SCC(=O)Nc2ccc(C)c(Cl)c2)nnc1-c1ccc2c(c1)OCCO2	> 40 µM (inactive)
Cc1ccc(NC(=O)Cc2nnc3c(-c4nc(C5CC5)no4)cccn23)cc1F	31.5 µM
O=C(Cn1nnc2ccccc21)Nc1nc(-c2ccc3c(c2)CCN3C(=O)c2ccccc2F)cs1	34.9 µM
COc1cc2c(cc1OC)-c1cc(Nc3ccc(Br)cc3)nc(=O)n1CC2	13.7 µM

SMILES	IC50
O=C(Nc1cc(F)c2nc(N3CCOCC3)ccc2c1)C1CC1	> 40 µM (inactive)
CCCCN1CC(C(=O)Nc2ccc(C(=O)Nc3ccc(C(N)=O)cc3)cc2)CC1=O (configuration not stated)	> 40 µM (inactive)
CCC(=O)Nc1nc2cc(NC(=O)Nc3cc(C)cc(C)c3)ccc2s1	> 40 µM (inactive)
O=C(NCc1ccco1)c1ccc(Cn2c(SCc3ccccc3)nc3ccncc32)cc1	> 40 µM (inactive)
O=C(Nc1ccccc1C(=O)O)c1ccc(CSCc2ccccc2)cc1	10.4 µM
COc1cccc(NC(=O)c2cnc(N3CCCC3)nc2C)c1	> 40 µM (inactive)
CN(C)[C@@H]1C(=O)C(C(N)=O)=C(O)[C@@]2(O)C(=O)C3=C(O)c4c(O)cccc4[C@@](C)(O)C3[C@H](O)[C@@H]12 (some centres not stated)	1.1 µM
Cc1nnc2ccc(-c3ccc(NC(=O)c4ccc(Br)o4)cc3)nn12	> 40 µM (inactive)
Cc1ccc(C(=O)c2cn(CC(=O)Nc3ccccc3)c3ccc(C)cc3c2=O)cc1	> 40 µM (inactive)
COc1ccc(NC(=O)CNC(=O)c2ccc3nc(-n4cccc4)sc3c2)cc1	> 40 µM (inactive)
CCCCCCCCCCCC1=C(O)C(=O)C=C(O)C1=O	2.44 µM
COc1cccc2cc(C(=O)Nc3nc(-c4ccncc4)cs3)oc12	9.63 µM
Cc1c(Cl)cccc1NC(=O)Cn1cc(C(=O)C2CC2)c2ccccc21	> 40 µM (inactive)
Cc1ccc(C(=O)NC(C)c2ccccc2)cc1NC(=O)c1nsc2ccccc12 (configuration not stated)	27.9 µM
O=C1CC(c2cc3c(cc2Br)OCO3)c2cc3c(cc2N1)OCCO3 (configuration not stated)	> 40 µM (inactive)
O=c1[nH]c(C2CCN(S(=O)(=O)c3ccc(S(=O)(=O)NC4CCCC4)cc3)CC2)nc2c1nnn2Cc1cccc(Cl)c1	13.2 µM
Cn1c(=O)[nH]c(=O)c2c1nc(N1CCc3ccccc3C1)n2CCSc1nnnn1-c1ccccc1	> 40 µM (inactive)
O=C(CCCn1c(=O)c2cc(Cl)ccc2n(CC(=O)Nc2cccc(F)c2)c1=O)NCc1ccco1	> 40 µM (inactive)
Cc1ccc2nc(NC(=O)/C=C/c3ccc4c(c3)OCO4)sc2c1	15.1 µM
Cc1ccc(-c2cc(=O)n(CC(=O)Nc3ccc(C(C)C)cc3)cn2)cc1	> 40 µM (inactive)
Cc1nc2c(nnn2C[C@H]2CCCN2C(=O)c2ccc(F)cc2)c(=O)[nH]1	> 40 µM (inactive)
CCOc1ccc(Oc2nc(CN3CCCC3)nc3sc(C)c(C)c23)cc1	> 40 µM (inactive)
CCC1OC(O)(C(C)C(O)C(C)C2OC(=O)/C(C)=C/C(C)=CC(C)C(O)C(C)C/C(C)=C/C=C/C2OC)CC(OC(=O)/C=C/C(=O)NC2=C(O)CCC2=O)C1C (configuration not stated)	16.6 µM
